Target: T1, AsfvLIG (African swine fever virus BA71V, UniProt P35970)
T1 construct: gene LIG
Settings: non-catalytic AsfvLIG:DNA complex; no Mg2+; bound in the adenylation domain near catalytic Lys151

T1 sequence (P35970 whole entry, looked up): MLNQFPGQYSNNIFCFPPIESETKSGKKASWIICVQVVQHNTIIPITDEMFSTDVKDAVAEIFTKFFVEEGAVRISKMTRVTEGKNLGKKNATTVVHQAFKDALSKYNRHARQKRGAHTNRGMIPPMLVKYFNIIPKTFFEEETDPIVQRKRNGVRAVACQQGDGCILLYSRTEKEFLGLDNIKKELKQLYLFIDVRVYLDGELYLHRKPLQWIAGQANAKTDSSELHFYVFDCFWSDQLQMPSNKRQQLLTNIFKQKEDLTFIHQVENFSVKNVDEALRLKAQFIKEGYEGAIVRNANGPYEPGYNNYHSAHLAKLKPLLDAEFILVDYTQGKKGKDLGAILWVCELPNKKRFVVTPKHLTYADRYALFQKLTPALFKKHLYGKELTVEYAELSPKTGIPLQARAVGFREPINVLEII

SMILES: Nc1ncnc2c1ncn2[C@@H]1O[C@H](COP(=O)(O)OP(=O)(O)OP(=O)(O)O)[C@@H](O)[C@H]1O [ATP]
- X-ray crystal structure (Se-SAD): the ATP is bound by the AD domain and stabilized by various interactions

From article PMC6344480 (Nature Communications, 2019)
